Drawing on US20260078135A1, “POLYCYCLIC QUINAZOLINES FOR INHIBITION OF ERBB2” (Enliven Inc., priority 2022, published 2026), this text covers GI50 and IC50 for 15 compounds.

In experiment [1] the target is Ba/F3 ERBB2 YVMA (Homo sapiens, UniProt P04626, DUP772-775, cells depend on it). In words: Cell viability assay (CellTiter Glo), Ba/F3 cells engineered to express ERBB2 YVMA. The class given is cell-based, mouse. Particulars: Ba/F3 cells expressing human ERBB2 YVMA mutant, 72 hours, read-out: Ba/F3 ERBB2 YVMA, IC50. As for the experimental part: Cells were treated with compounds, and cell viability was measured as a metric of kinase inhibition.
Chain of Ba/F3 ERBB2 YVMA (P04626 with tags, fused parts or gaps DUP772-775): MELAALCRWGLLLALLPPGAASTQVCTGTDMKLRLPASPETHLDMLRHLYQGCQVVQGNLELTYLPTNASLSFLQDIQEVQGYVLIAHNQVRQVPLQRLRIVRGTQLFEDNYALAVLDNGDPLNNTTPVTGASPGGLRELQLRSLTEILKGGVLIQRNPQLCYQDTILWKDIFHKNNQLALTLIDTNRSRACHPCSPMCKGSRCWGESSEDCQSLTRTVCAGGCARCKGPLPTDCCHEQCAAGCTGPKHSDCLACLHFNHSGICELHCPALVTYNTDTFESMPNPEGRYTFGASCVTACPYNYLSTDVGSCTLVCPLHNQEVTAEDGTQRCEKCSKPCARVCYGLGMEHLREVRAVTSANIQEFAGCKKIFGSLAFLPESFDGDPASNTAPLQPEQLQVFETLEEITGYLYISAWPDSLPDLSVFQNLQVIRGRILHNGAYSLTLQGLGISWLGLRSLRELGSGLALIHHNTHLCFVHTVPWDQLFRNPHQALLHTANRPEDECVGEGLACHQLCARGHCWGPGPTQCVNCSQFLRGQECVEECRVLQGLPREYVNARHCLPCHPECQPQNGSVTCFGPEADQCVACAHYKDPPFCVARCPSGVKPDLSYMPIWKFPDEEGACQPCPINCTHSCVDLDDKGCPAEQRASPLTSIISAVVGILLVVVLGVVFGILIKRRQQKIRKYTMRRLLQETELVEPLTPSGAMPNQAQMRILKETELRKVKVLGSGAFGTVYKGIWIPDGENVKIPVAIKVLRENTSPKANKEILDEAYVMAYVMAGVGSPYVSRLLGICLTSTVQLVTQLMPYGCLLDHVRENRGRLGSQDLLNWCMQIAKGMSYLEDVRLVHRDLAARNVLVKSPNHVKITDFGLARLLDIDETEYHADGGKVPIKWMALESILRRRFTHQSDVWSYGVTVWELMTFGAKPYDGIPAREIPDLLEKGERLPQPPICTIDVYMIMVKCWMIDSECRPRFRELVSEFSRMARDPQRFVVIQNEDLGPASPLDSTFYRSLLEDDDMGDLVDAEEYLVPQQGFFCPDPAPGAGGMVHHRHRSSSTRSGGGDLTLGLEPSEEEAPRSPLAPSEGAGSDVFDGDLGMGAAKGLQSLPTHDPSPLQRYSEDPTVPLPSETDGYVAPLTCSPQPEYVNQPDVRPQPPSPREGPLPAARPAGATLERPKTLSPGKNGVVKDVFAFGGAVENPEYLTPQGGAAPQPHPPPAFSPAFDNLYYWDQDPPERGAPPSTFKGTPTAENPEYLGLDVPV
BT-474, A431, MDA-MB-175VII, NCI-H1781, MCF7, and Ba/F3 cell lines were tested. The Ba/F3 cell line is IL-3-dependent mouse cell line derived from the C3H mouse strain. Ba/F3 cell lines were engineered to express human ERBB2 or EGFR kinases, rendering the cells IL-3 independent. The lines were generated via retroviral transduction utilizing a Moloney murine leukemia virus (MMLV) promoter, and constructs are stably integrated into the cell genome. The sequences of the ERBB2 and EGFR genes used were NCBI Reference Sequences NM_004448.3 and NM_005228.3, respectively.
BT-474, A431, MDA-MB-175VII, NCI-H1781 and MCF7 cells were grown in the appropriate growth medium as described in Table B2 below, and harvested at 50-80% confluence. BT-474, A431, MDA-MB-175VII, NCI-H1781 and MCF7 cells were counted and seeded at 2,000 or 1,500 cells per well in 384-well tissue culture plates (see Table B2). Similarly, Ba/F3 cell lines engineered to express EGFR, ERBB2, or ERBB2 mutants were grown, harvested, counted and seeded at 3000 cells per well in 96-well plates. A subset of wells contained media only (low control, “LC”).
Table B1 provides the growth media and number of cells seeded per well for the each cell line.
Compounds were dissolved in DMSO and serially diluted. Serially-diluted compound or a DMSO only control (high control, “HC”) was added to the plated cells in each well. Compounds were tested at concentrations of about 10 μM to 0.51 nM, using three-fold dilutions. The final proportion of DMSO never exceeded 0.1%.
Plates were placed in a 37° C., 5% CO2 incubator for 72 hours. Plates were then removed from the incubator and equilibrated for 15 minutes at room temperature. 40 μl of CellTiter Glo reagent (Promega) was added to measure the relative level of metabolically active cells by quantifying intracellular ATP concentrations. Plates were incubated for 30 minutes at room temperature, and luminescence was measured. Percent viability was normalized to a vehicle control only using the following formula: % viability=100×(Lumsample−LumLC)/(LumHC−LumLC). Graphical curves were fitted using a nonlinear regression model with a sigmoidal dose response.

Experiment [2] has as its target T1, phosphorylated EGFR (pEGFR) (Homo sapiens, UniProt P00533).
T1 construct: performed to measure phosphorylated EGFR levels using A431 cells (10% FBS); endogenous in cells; host or cells: A431
Kind of experiment: Detection of phosphorylated EGFR (pEGFR) by AlphaLISA in EGF-stimulated A431 cells. The class given is cell-based. The settings on record: A431 cells (10% FBS), 4 hours incubation, EGF 30 ng/mL for 10 minutes. The method, boiled down: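 pEGFR was quantified by AlphaLISA in lysates of A431 cells (10% FBS) given a 10 min pulse of EGF at 30 ng/mL after 4 h compound exposure at 37 °C. IC50 came from a four-parameter fit of % inhibition between DMSO and staurosporine controls.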
(Alpha assays give light when donor and acceptor beads are brought close together.)

Experiment [3] has as its target T2, phosphorylated ERBB2 (pERBB2) (Homo sapiens, UniProt P04626).
T2 construct: endogenous in cells; host or cells: BT-474
Kind of experiment: Detection of phosphorylated ERBB2 (pERBB2) by ELISA in BT-474 cells. The class given is cell-based. Particulars: four hour incubation. The method, boiled down: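 BT-474 cells were treated with compounds (fourfold dilutions, 10 μM to 0.01 nM final) for 4 h at 37 °C, then lysed. pERBB2 in lysates was quantified by ELISA with an HRP anti-phosphotyrosine detection antibody and TMB read at 450 nm; % relative activity was normalized to no-cell and 0.1% DMSO controls.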
On the technique in general: In an ELISA, binding on a coated surface is turned into a signal by an enzyme label.

Bounds are passed on as bounds.

T1 sequence (P00533 25-1210): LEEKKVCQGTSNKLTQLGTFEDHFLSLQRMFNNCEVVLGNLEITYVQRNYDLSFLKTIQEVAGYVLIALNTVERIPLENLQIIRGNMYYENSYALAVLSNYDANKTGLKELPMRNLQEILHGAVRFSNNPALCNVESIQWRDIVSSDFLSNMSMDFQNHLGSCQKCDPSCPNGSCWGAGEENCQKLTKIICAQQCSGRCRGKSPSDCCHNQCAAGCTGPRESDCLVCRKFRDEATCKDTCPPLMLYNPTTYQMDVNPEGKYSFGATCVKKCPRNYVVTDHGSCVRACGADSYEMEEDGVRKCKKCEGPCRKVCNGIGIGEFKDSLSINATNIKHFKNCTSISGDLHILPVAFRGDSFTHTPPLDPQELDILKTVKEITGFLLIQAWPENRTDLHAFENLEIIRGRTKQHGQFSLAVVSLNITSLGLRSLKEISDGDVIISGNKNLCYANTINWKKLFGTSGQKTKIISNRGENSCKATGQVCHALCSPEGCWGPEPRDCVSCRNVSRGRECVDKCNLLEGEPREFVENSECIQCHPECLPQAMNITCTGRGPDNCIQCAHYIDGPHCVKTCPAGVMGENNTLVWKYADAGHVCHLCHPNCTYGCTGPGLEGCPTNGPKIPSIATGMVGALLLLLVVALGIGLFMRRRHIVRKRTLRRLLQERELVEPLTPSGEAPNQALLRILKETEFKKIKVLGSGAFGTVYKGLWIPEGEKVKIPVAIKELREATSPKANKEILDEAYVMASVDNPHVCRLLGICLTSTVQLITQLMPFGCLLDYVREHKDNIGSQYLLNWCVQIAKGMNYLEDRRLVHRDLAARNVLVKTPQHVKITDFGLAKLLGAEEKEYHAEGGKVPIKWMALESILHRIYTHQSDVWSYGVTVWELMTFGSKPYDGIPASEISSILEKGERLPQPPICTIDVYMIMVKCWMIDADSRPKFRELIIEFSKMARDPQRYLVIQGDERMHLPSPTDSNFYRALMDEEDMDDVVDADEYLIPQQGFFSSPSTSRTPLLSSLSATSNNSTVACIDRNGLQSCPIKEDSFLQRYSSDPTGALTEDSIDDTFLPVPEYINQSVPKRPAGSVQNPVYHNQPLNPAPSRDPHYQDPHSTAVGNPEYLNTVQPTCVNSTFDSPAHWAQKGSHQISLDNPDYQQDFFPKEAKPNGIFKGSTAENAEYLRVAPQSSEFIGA
T2 sequence (P04626 23-1255): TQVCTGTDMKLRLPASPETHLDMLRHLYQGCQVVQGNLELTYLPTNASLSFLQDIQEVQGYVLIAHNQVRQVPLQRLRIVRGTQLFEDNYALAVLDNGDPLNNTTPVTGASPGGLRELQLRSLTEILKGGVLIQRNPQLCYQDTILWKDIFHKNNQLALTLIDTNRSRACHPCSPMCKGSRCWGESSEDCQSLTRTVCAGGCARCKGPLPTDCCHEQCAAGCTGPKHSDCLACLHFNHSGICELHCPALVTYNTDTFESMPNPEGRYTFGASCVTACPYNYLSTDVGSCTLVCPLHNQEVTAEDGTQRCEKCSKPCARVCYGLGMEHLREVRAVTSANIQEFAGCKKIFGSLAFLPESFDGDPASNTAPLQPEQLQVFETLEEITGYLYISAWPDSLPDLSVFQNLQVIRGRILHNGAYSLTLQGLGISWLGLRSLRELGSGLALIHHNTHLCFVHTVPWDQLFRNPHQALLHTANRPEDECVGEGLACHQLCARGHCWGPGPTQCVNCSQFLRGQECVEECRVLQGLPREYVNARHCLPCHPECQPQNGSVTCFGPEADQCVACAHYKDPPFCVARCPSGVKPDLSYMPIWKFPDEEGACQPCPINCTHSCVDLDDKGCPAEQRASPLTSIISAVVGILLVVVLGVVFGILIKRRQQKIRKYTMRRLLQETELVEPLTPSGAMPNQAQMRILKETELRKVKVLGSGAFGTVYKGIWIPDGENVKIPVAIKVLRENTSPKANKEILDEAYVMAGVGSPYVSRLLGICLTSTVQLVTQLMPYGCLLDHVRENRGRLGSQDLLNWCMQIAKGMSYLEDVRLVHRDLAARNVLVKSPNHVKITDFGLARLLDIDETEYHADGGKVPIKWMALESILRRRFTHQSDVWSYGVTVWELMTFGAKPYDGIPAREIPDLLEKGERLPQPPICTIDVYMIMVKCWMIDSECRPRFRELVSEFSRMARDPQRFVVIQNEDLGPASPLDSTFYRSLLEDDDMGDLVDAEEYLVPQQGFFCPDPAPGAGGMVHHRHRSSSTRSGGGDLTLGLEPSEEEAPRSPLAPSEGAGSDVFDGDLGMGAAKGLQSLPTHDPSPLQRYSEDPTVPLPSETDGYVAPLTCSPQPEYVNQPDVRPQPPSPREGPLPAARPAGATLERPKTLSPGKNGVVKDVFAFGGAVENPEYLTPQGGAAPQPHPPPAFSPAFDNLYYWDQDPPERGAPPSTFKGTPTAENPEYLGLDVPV

In general, IC50 refers to the concentration that inhibits the measured activity by half. A lower IC50 goes with greater potency in that assay. In the case of `C=CC(=O)N1CCN2C[C@@H]1COc1c2ccc2ncnc(Nc3ccc(Oc4ccn5ncnc5c4)c(C)c3)c12` [Compound 25, 1-((3R)-13-((4-([1,2,4]triazolo[1,5-a]pyridin-7-yloxy)-3-methylphenyl)amino)-2,3,5,6-tetrahydro-4H-3,7-methano[1,4,7]oxadiazonino[2,3-f]quinazolin-4-yl)prop-2-en-1-one], the GI50 in experiment [1] is 15.5 nM. The values for the concentration for half-maximal inhibition (IC50) in experiment [2] and in experiment [3] were 1580 nM and 11.5 nM, respectively.
The matching figures for `Cc1cc(Nc2ncnc3ccc4c(c23)OC[C@@H]2CN4CCN2C(=O)/C=C/CN(C)C)ccc1Oc1ccn2ncnc2c1` [Compound 26, (E)-1-((3S)-13-((4-([1,2,4]triazolo[1,5-a]pyridin-7-yloxy)-3-methylphenyl)amino)-2,3,5,6-tetrahydro-4H-3,7-methano[1,4,7]oxadiazonino[2,3-f]quinazolin-4-yl)-4-(dimethylamino)but-2-en-1-one]: above 500 nM, above 10000 nM and 434 nM.
The matching figures for `Cc1cc(Nc2ncnc3ccc4c(c23)OC[C@H]2CN4CCN2C(=O)/C=C/CN(C)C)ccc1Oc1ccn2ncnc2c1` [Compound 27, (E)-1-((3R)-13-((4-([1,2,4]triazolo[1,5-a]pyridin-7-yloxy)-3-methylphenyl)amino)-2,3,5,6-tetrahydro-4H-3,7-methano[1,4,7]oxadiazonino[2,3-f]quinazolin-4-yl)-4-(dimethylamino)but-2-en-1-one]: 7.69 nM, 189 nM and 8.75 nM.
The matching figures for `C=CC(=O)N1CCN2C[C@H]1COc1c2ccc2ncnc(Nc3ccc(Oc4ccc5c(c4)ncn5C)c(C)c3)c12` [Compound 28, 1-((3S)-13-((3-methyl-4-((1-methyl-1H-benzo[d]imidazol-5-yl)oxy)phenyl)amino)-2,3,5,6-tetrahydro-4H-3,7-methano[1,4,7]oxadiazonino[2,3-f]quinazolin-4-yl)prop-2-en-1-one]: above 500 nM, above 10000 nM and 417 nM.
Regarding `C=CC(=O)N1CCN2C[C@@H]1COc1c2ccc2ncnc(Nc3ccc(Oc4ccc5c(c4)ncn5C)c(C)c3)c12` [Compound 29, 1-((3R)-13-((3-methyl-4-((1-methyl-1H-benzo[d]imidazol-5-yl)oxy)phenyl)amino)-2,3,5,6-tetrahydro-4H-3,7-methano[1,4,7]oxadiazonino[2,3-f]quinazolin-4-yl)prop-2-en-1-one], the GI50 in experiment [1] is 23.9 nM. Besides, the 50% inhibitory concentration (IC50) is 2930 nM in experiment [2] and 30.7 nM in experiment [3].
For `Cc1cc(Nc2ncnc3ccc4c(c23)OC[C@@H]2CN4CCN2C(=O)/C=C/CN(C)C)ccc1Oc1ccc2c(c1)ncn2C` [Compound 30, (E)-4-(dimethylamino)-1-((3S)-13-((3-methyl-4-((1-methyl-1H-benzo[d]imidazol-5-yl)oxy)phenyl)amino)-2,3,5,6-tetrahydro-4H-3,7-methano[1,4,7]oxadiazonino[2,3-f]quinazolin-4-yl)but-2-en-1-one], in that order: above 500 nM, above 10000 nM and 304 nM.
As to `Cc1cc(Nc2ncnc3ccc4c(c23)OC[C@H]2CN4CCN2C(=O)/C=C/CN(C)C)ccc1Oc1ccc2c(c1)ncn2C` [Compound 31, (E)-4-(dimethylamino)-1-((3R)-13-((3-methyl-4-((1-methyl-1H-benzo[d]imidazol-5-yl)oxy)phenyl)amino)-2,3,5,6-tetrahydro-4H-3,7-methano[1,4,7]oxadiazonino[2,3-f]quinazolin-4-yl)but-2-en-1-one], the GI50 in experiment [1] was determined as 12.6 nM. The figures for the concentration for half-maximal inhibition (IC50) in experiment [2] and in experiment [3] were 246 nM and 19.9 nM, respectively.
The matching figures for `CC#CC(=O)N1CCN2c3nc4c(Nc5ccc(Oc6ccn7ncnc7c6)c(C)c5)ncnc4cc3OC[C@@H]2C1` [Compound 32, (S)-1-(11-((4-([1,2,4]triazolo[1,5-a]pyridin-7-yloxy)-3-methylphenyl)amino)-1,2,4a,5-tetrahydropyrazino[1,2-d]pyrimido[4′,5′:5,6]pyrido[3,2-b][1,4]oxazin-3(4H)-yl)but-2-yn-1-one]: 18.3 nM, 4770 nM and 51.4 nM.
The matching figures for `Cc1cc(Nc2ncnc3cc4c(nc23)N2CCN(C)C[C@H]2CO4)ccc1Oc1ccn2ncnc2c1` [Compound 33, (S)—N-(4-([1,2,4]triazolo[1,5-a]pyridin-7-yloxy)-3-methylphenyl)-3-methyl-1,2,3,4,4a,5-hexahydropyrazino[1,2-d]pyrimido[4′,5′:5,6]pyrido[3,2-b][1,4]oxazin-11-amine]: 271 nM, above 10000 nM and 52.4 nM.
The matching figures for `Cc1cc(Nc2ncnc3cc4c(nc23)N2CCNC[C@H]2CO4)ccc1Oc1ccn2ncnc2c1` [Compound 34, (S)—N-(4-([1,2,4]triazolo[1,5-a]pyridin-7-yloxy)-3-methylphenyl)-1,2,3,4,4a,5-hexahydropyrazino[1,2-d]pyrimido[4′,5′:5,6]pyrido[3,2-b][1,4]oxazin-11-amine]: 474 nM, above 10000 nM and 53.6 nM.
For `Cc1cc(Nc2ncnc3cc4c(nc23)N2CCNC[C@@H]2CO4)ccc1Oc1ccn2ncnc2c1` [Compound 35, (R)—N-(4-([1,2,4]triazolo[1,5-a]pyridin-7-yloxy)-3-methylphenyl)-1,2,3,4,4a,5-hexahydropyrazino[1,2-d]pyrimido[4′,5′:5,6]pyrido[3,2-b][1,4]oxazin-11-amine], in experiment [1], the GI50 was above 500 nM. The IC50 is above 10000 nM in experiment [2] and 127 nM in experiment [3].
With `Cc1cc(Nc2ncnc3ccc4c(c23)OC[C@@H]2CN4CCN2)ccc1Oc1ccn2ncnc2c1` [Compound 49, (3S)—N-(4-([1,2,4]triazolo[1,5-a]pyridin-7-yloxy)-3-methylphenyl)-3,4,5,6-tetrahydro-2H-3,7-methano[1,4,7]oxadiazonino[2,3-f]quinazolin-13-amine], in experiment [1], the GI50 was above 500 nM. The figures for the IC50 in experiment [2] and in experiment [3] were above 10000 nM and 466 nM, respectively.
`Cc1cc(Nc2ncnc3ccc4c(c23)OC[C@@H]2CN4CCN2C)ccc1Oc1ccn2ncnc2c1` [Compound 50, (3S)—N-(4-([1,2,4]triazolo[1,5-a]pyridin-7-yloxy)-3-methylphenyl)-4-methyl-3,4,5,6-tetrahydro-2H-3,7-methano[1,4,7]oxadiazonino[2,3-f]quinazolin-13-amine]: the GI50 in experiment [1] is above 500 nM. Besides, the IC50 in experiment [2] was above 10000 nM; in experiment [3], 195 nM.
For `Cc1cc(Nc2ncnc3ccc4c(c23)OC[C@H]2CN4CCN2)ccc1Oc1ccn2ncnc2c1` [Compound 51, (3R)—N-(4-([1,2,4]triazolo[1,5-a]pyridin-7-yloxy)-3-methylphenyl)-3,4,5,6-tetrahydro-2H-3,7-methano[1,4,7]oxadiazonino[2,3-f]quinazolin-13-amine], in that order: above 500 nM, above 10000 nM and 128 nM.
For `Cc1cc(Nc2ncnc3ccc4c(c23)OC[C@H]2CN4CCN2C)ccc1Oc1ccn2ncnc2c1` [Compound 52, (3R)—N-(4-([1,2,4]triazolo[1,5-a]pyridin-7-yloxy)-3-methylphenyl)-4-methyl-3,4,5,6-tetrahydro-2H-3,7-methano[1,4,7]oxadiazonino[2,3-f]quinazolin-13-amine], in that order: above 500 nM, above 10000 nM and 219 nM.
